Measurements from article PMC6916019, “In vitro anti-malarial efficacy of chalcones: cytotoxicity profile, mechanism of action and their effect on erythrocytes” (Malaria Journal, 2019).
In brackets after ≈: the same amount, converted by molar mass.

Key:
[1] = system: P. falciparum chloroquine sensitive strain (MRC-2); experiment: microbe, parasite or virus in culture; conditions: Plasmodium falciparum, 24 h
Procedure: These strains were perpetuated in vitro in continuous culture according to the method of Trager and Jensen with slight modifications. Briefly, both sensitive and resistant strains of P. falciparum were maintained in A+ erythrocytes in RPMI-1640 medium (having glutamine, but without any sodium bicarbonate) comprising 1.00 g of dextrose, 5.94 g of HEPES buffer, 40.00 mg of gentamycin. Additionally supplemented with 5% sodium bicarbonate and 10% (v/v) inactivated human AB+ serum then incubated in gas mixture of 5% CO2, 5% O2 and 90% N2 at 37 °C. Parasitized erythrocytes at initial 5% haematocrit were suspended in above mentioned culture medium and parasitaemia was regularly checked to maintain level between 2 and 4% with further sub-culturing for parasitaemia beyond 5%. Growth and multiplication of parasite was monitored by microscopy using Giemsa-stained slides.
To obtain ring stages of the parasite, the cultures were synchronized using D-sorbitol. The cultures, with majority of ring stages, were treated with equal volume of aqueous 5% D-sorbitol for 5 min and then after centrifugation pellet were suspended in complete medium and fresh erythrocytes synchronized culture with 1% parasitaemia and 5% haematocrit were used for compound concentration response assay.
The concentration of each test compound needed to hinder multiplication of parasites by 50% (IC50) against P. falciparum strains were obtained through concentration response assay performed in 96-well sterile tissue culture plates. Synchronized parasite cultures were applied to different doses of each compound. Dilutions were performed in gentamycin-free culture medium, and incubated at 37 °C having gaseous mixture (5% CO2, 5% O2 and 90% N2) supply for 24 h. The results were expressed as IC50 values computed from HN-NonLin Regression analysis, as well as mean percentage inhibition ± standard error examined by thick smear Giemsa stained slides. %ParasiteInhibition29,30=100-TotalnumberofSchizontsintestwells/TotalnumberofSchizontsincontrolwell∗100
Parasite at ring stage was used for compound concentration response assay with parasitaemia of 1% at 5% haematocrit. […] The IC50 and IC90 values of all compounds were determined and the resistance index between the two sensitive and resistant strains was calculated (Table 2). […] The percentage inhibition in schizont maturation was also calculated after incubation of ring stage P. falciparum till 24 h at the same range of drug concentrations (Table 3).

[2] = system: haemozoin (β-haematin) production in P. falciparum cultures; experiment: Haemozoin inhibition assay in P. falciparum cultures; format: cell-based, Plasmodium falciparum; conditions: drug near IC50 concentration, 48 h, untreated control 547.61 ± 9.52
Procedure: Briefly, the test cultures were centrifuged for 5–10 min at 1300 rpm to dispose of the culture medium. Infected erythrocyte pellet (mingled of β-haematin and erythrocyte membrane) were exposed to 0.01% saponin lysis for 10 min at 25 °C to lyse erythrocyte to release parasites. […] The haemozoin content was quantified by taking the absorbance at 400 nm and using a standard curve prepared from β-haematin. The amount of haemozoin formed in relation to control was calculated. All assays were performed in triplicate.

[3] = MTT cytotoxicity / cell viability assay; conditions: human
Procedure: Cytotoxicity of the compounds on mammalian cells were accomplished employing HeLa cell line (NCCS, Pune) cultured in DMEM supplemented with 10% FBS by the MTT (3-(4,5-dimethylthiazol-2-yl)-2,5-diphenyltetrazolium bromide) microenzymatic method with certain modifications [32]. Briefly, cells (10^4 cells/200 μL/well) were seeded into 96-well flat-bottom sterile tissue culture plates in complete medium. After 24 h of seeding, the test compounds at different dilutions were added and kept for another 24 h in a humidified chamber with 5% CO2 at 37 °C. Twenty microlitres of MTT (5.00 mg/mL in 1XPBS) stock solution were pipetted into each well, mixed and incubated for at least 3–4 h. After incubation, the plates were centrifuged at 1500 rpm for 5 min. The supernatant was disposed cautiously and 100 μL of DMSO were added to each well to lyse the cell and dissolve the insoluble purple formazan product into a coloured solution. Absorbance was taken at 570 nm to determine formazan formation as a measurement of cell viability. Experiments were performed in triplicate.

[4] = Haemolysis assay on normal erythrocytes
Procedure: Briefly, fresh erythrocytes were centrifuged for 5 min at 1600 rpm for at least thrice in PBS and then the remaining pellet was re-suspended in PBS at 2% hematocrit. One hundred microlitres of this suspended pellet was added to 96-well sterile culture plate having test compounds at different desired concentrations. PBS alone (for baseline values) and 0.4% Triton X-100 in PBS (for 100% haemolysis) were employed as controls. After keeping at 37 °C for 3 h, the test samples were centrifuged and the supernatant was used for determination of the haemolytic activity quantified in terms of haemoglobin release as monitored spectrophotometrically by taking absorbance at 415 nm [33]. The experiment was done in triplicate and the mean ± SD was calculated [33, 34]. %Haemolysis=[Absorbanceofsample415nm-Absorbanceofblanksample415nm/Absorbanceofpositivecontrol415nm]∗100

Compound: CCN(CC)CCCC(C)Nc1ccnc2cc(Cl)ccc12 (stereo not shown) [CHL, chloroquine, reference compound]
- inhibition at 6.25 µg/mL ([1]; read-out: % Schizont maturation inhibition ± SD (MRC-2)): 88.39 ± 0.71%
- IC50 ([1]; read-out: P. falciparum Chloroquine^s Strain (MRC-2) IC50): 0.17 µg/mL (≈ 0.531 µM)
- IC90 ([1]; read-out: P. falciparum Chloroquine^s Strain (MRC-2) IC90): 1.14 µg/mL (≈ 3.56 µM)
- Amount of haemozoin production [2]: 359.52 ± 2.38 ng/mL
- Amount of haemozoin production ([2]; listed as chloroquine): 359.52 ± 2.38 ng/mL
- viability at 24 h, 12.5 µg/mL [3]: 58 ± 0.06%
- hemolysis at 3 h, 12.5 μg/mL [4]: 0.86 ± 0.001%
